Assay results as given in patent US20260355225A1 (priority 2022, published 2026).
Where “and” joins values, the source holds several entries; their conditions need not be identical. Equal entries are not always repeated.

Columns and labels:
[1] = tested on: SARS-CoV-2; settings: pre-incubation of 25 minutes prior to infection; cited from earlier work
[2] = Cytotoxicity of D-xylose, MTT assay, absence of viral infection (Example 1); assay type: cell-based; settings: monkey, vero cells, remdesivir at the time of infection, read-out: Viability percentage
Procedure: (§1) Cells (Vero E6) were used, with two modes of administration: either at the same time or 6 h before infection with SARS-CoV-2 (isolated early).
(§2) The readout for this test is CPE, so the infection will be stopped at 72 hpi (hours post-infection), and the compound will remain for the duration of the experiment. In parallel, the cytotoxicity of the same compound concentrations will be tested in the absence of viral infection.
(§3) The day before the experiment, the 8,000 cells/well are seeded in two 96-well plates (clear, Sarstedt), one for the antiviral study and one for the cytotoxicity study.
(§4) 134.4 μl of the 1 M composition is transferred to 1,465.6 μl of infection medium (=84 mM, twice the final maximum concentration).
(§5) Next, the cell support in the cytotoxicity plate is removed.
(§6) Immediately afterwards, 50 μl of undiluted infection medium is added to all the wells.
(§7) Next, 50 μl of infection medium without diluent is added to columns 4 to 6.
(§8) Next, the plate is incubated at 37 °C, 5% CO2 for 48 h.
(§9) After 72 h, when the CPE is evident, an MTT assay is performed for the antiviral and cytotoxicity plates.

[3] = tested on: Vero AD cells; assay: as above; assay type: cell-based; settings: remdesivir at the time of infection
Procedure: as §1, §2, §3, §4, §5, §6, §7, §8, §9

[4] = tested on: SARS-CoV-2; assay: Antiviral assay, inhibition of virus-induced cytopathic effect (CPE) of SARS-CoV-2 by MTT assay (Example 1); settings: remdesivir at the time of infection; for Viability percentage: 4320 min
[5] = Cytotoxicity of D-xylose alone or + insulin, MTT assay, absence of viral infection (Example 2); settings: human, hela tzmbl cells
[6] = tested on: HeLa TZMBL cells; assay: as above
[7] = Antiviral assay against HIV-1 NL4-3, percentage of infected cells by immunofluorescence (Example 2); settings: human, hela tzmbl cells, Viability Percentages, replicate wells
[8] = tested on: HIV-1 NL4-3; assay: as above; settings: Human immunodeficiency virus 1, NL43, 48 h
[9] = tested on: glycated hemoglobin (HbA1c); settings: healthy person; cited from earlier work
[10] = AZT 0.002 μM, 2880 min, 0.002 µM
[11] = AZT 0.007 μM, 2880 min, 0.007 µM
[12] = AZT 0.062 μM, 2880 min, 0.062 µM
[13] = AZT 0.556 μM, 2880 min, 0.556 µM
[14] = AZT 1.667 μM, 2880 min, 1.667 µM
[15] = Triton added to untreated cells as control

heparin
inhibition of SARS-CoV-2 viral attachment [1]: inhibits SARS-CoV-2 viral attachment

CCC(CC)COC(=O)[C@H](C)N[P@](=O)(OC[C@H]1O[C@@](C#N)(c2ccc3c(N)ncnn23)[C@H](O)[C@@H]1O)Oc1ccccc1 [Remdesivir, reference compound]
viability at […] ([2]; 0.16 μm): 100% | viability at 0.31 µM ([2]; 0.31 μm): 106% | viability at 0.63 µM ([2]; 0.63 μm): 102% | viability at 1.25 µM ([2]; 1.25 μm): 103% | viability at 2.5 µM ([2]; 2.5 μm): 112% | viability at 5 µM ([2]; 5 μm): 110% | viability at 10 µM ([2]; 10 μm): 105% | viability at 20 µM ([2]; 20 μm): 101% | Viability percentage ([3]; 0.31 μm): 99.84% | Viability percentage ([3]; 0.63 μm): 108.33% | Viability percentage ([3]; 1.25 μm): 110.83% and 112.82% | Viability percentage ([3]; 2.5 μm): 107.83% and 115.32% | Viability percentage ([3]; 5 μm): 122.31% | Viability percentage ([3]; 10 μm): 106.83% | Viability percentage ([3]; 20 μm): 94.35% and 93.35% | absorbance at 570 nm ([4]; 0.16 μm): 0.086 and 0.077 and 0.078 | absorbance at 570 nm ([4]; 0.31 μm): 0.084 and 0.098 | absorbance at 570 nm ([4]; 0.63 μm): 0.094 | absorbance at 570 nm ([4]; 1.25 μm): 0.127 and 0.137 and 0.128 | Viability percentage ([4]; 1.25 μm): 47.72% and 46.55% and 58.30% | absorbance at 570 nm ([4]; 2.5 μm): 0.178 and 0.195 | Viability percentage ([4]; 2.5 μm): 92.36% and 106.46% and 126.43% | absorbance at 570 nm ([4]; 5 μm): 0.198 and 0.215 and 0.174 | Viability percentage ([4]; 5 μm): 101.76% and 129.96% and 149.93% | absorbance at 570 nm ([4]; 10 μm): 0.169 and 0.199 and 0.188 | Viability percentage ([4]; 10 μm): 118.21% and 95.89% and 131.13% | Viability percentage ([4]; 20 μm): 80.62% and 86.49% and 79.44%

Cc1cn([C@H]2C[C@H](N=[N+]=[N-])[C@@H](CO)O2)c(=O)[nH]c1=O [AZT, 3-azido-3-deoxythymidine, reference compound]
cytotoxicity at 48 h, 0.007 µM ([5]; Cytotoxicity percentage, AZT 0.007 μM): 5.07% | cytotoxicity at 48 h, 0.062 µM ([5]; Cytotoxicity percentage, AZT 0.062 μM): 4.36% | viability at 48 h, 0.002 µM ([5]; Viability percentage, AZT 0.002 μM): 102% | viability at 48 h, 0.007 µM ([5]; Viability percentage, AZT 0.007 μM): 94.9% | viability at 48 h, 0.062 µM ([5]; Viability percentage, AZT 0.062 μM): 95.6% | viability at 48 h, 0.556 µM ([5]; Viability percentage, AZT 0.556 μM): 97.6% | viability at 48 h, 1.667 µM ([5]; Viability percentage, AZT 1.667 μM): 102% | viability at 48 h, 5 µM ([5]; Viability percentage, AZT 5.000 μM): 96.9% | Results for Cytotoxicity (MTT readout) ([6]; AZT 0.002 μM): 2.455 and 2.474 and 2.438 | Cytotoxicity percentage [6, 10]: −1.89% and −2.69% and −1.17% | Viability percentage [6, 10]: 102.69% and 101.17% | Results for Cytotoxicity (MTT readout) ([6]; AZT 0.007 μM): 2.29 and 2.333 and 2.278 | Cytotoxicity percentage [6, 11]: 3.26% and 5.58% | Viability percentage [6, 11]: 96.74% and 94.42% | Results for Cytotoxicity (MTT readout) ([6]; AZT 0.062 μM): 2.307 and 2.356 and 2.337 | Cytotoxicity percentage [6, 12]: 2.29% and 3.09% | Viability percentage [6, 12]: 97.71% | Results for Cytotoxicity (MTT readout) ([6]; AZT 0.556 μM): 2.353 and 2.414 and 2.406 | Cytotoxicity percentage [6, 13]: 2.42% and −0.16% and 0.18% | Viability percentage [6, 13]: 100.16% and 99.82% | Results for Cytotoxicity (MTT readout) ([6]; AZT 1.667 μM): 2.46 and 2.505 and 2.469 | Cytotoxicity percentage [6, 14]: −2.10% and −4.00% and −2.48% | Viability percentage [6, 14]: 104.00% and 102.48% | Results for Cytotoxicity (MTT readout) ([6]; AZT 5.000 μM): 2.337 and 2.402 and 2.36 | Cytotoxicity percentage ([6]; AZT 5.000 μM, 2880 min, 5 µM): 3.09% and 0.35% and 2.12% | Viability percentage ([6]; AZT 5.000 μM, 2880 min, 5 µM): 99.65% and 97.88% | viability at 48 h, 0.002 µM ([7]; AZT 0.002 μM): 29.9% | viability at 48 h, 0.007 µM ([7]; AZT 0.007 μM): 48.2% | viability at 48 h, 0.062 µM ([7]; AZT 0.062 μM): 74.2% | viability at 48 h, 0.556 µM ([7]; AZT 0.556 μM): 92.5% | viability at 48 h, 1.667 µM ([7]; AZT 1.667 μM): 96.8% | viability at 48 h, 5 µM ([7]; AZT 5.000 μM): 99.1% | activity at 0.002 µM ([8]; read-out: % Infection, AZT 0.002 μM, replicate wells): 13.3% | activity at 0.007 µM ([8]; read-out: % Infection, AZT 0.007 μM, replicate wells): 9.89% | activity at 0.062 µM ([8]; read-out: % Infection, AZT 0.062 μM, replicate wells): 5.07% | activity at 0.556 µM ([8]; read-out: % Infection, AZT 0.556 μM, replicate wells): 1.7% | activity at 1.667 µM ([8]; read-out: % Infection, AZT 1.667 μM, replicate wells): 0.89% | activity at 5 µM ([8]; read-out: % Infection, AZT 5.000 μM, replicate wells): 0.47%

Triton [reference compound]
Cytotoxicity percentage [6, 15]: 99.99% and 100.03% | Results for Cytotoxicity (MTT readout) [6, 15]: 0.040 and 0.039 | Viability percentage [6, 15]: 0.01% and −0.03%

OC[C@@H](O)[C@H](O)[C@@H](O)CO [xylitol, reference compound]
effect on glycated hemoglobin (HbA1c) levels [9]: little or no effect
